Reference: patent publication US20230256049A1, “MATERIALS AND METHODS FOR THE PREVENTION AND TREATMENT OF VIRAL RESPIRATORY DISEASES” (priority 2020, published 2023)
Like-named read-outs stand apart in the source and are kept apart here. Where a SMILES comes first, the peptide text is derived from it. [ ]: non-standard residue; d: D form.

Tests used:
[1] = system: SARS-CoV-2 (2019-nCoV/USA-WA1/2020 strain); conditions: VERO E6 (FIG. 5C)
[2] = system: HIV-1 (primary R5 JR-CSF); assay: HIV-1 in vitro model, HeLa TZM reporter cells (alanine scan); format: cell-based; conditions: β-galactosidase at 48 h
[3] = system: SARS-CoV-2 (2019-nCoV/USA-WA1/2020 strain)
SARS-CoV-2 = conditions: cited from earlier work; for treatment outcome in SARS-CoV-2 / COVID-19 patients: remdesivir: double-blind, randomized, placebo-controlled trial in hospitalized adults; for patient morbidity risk: treatment of SARS-CoV-2

CC[C@H](C)[C@H](NC(=O)[C@H](CC(=O)O)NC(=O)[C@H](CCCNC(=N)N)NC(=O)[C@H](CC(C)C)NC(=O)[C@H](Cc1c[nH]c2ccccc12)NC(=O)[C@@H](N)CO)C(=O)N[C@@H](Cc1c[nH]c2ccccc12)C(=O)N[C@@H](CC(=O)O)C(=O)N[C@@H](Cc1c[nH]c2ccccc12)C(=O)N[C@H](C(=O)N[C@@H](CS)C(=O)N[C@@H](CCC(=O)O)C(=O)N[C@H](C(=O)N[C@@H](CC(C)C)C(=O)N[C@@H](CO)C(=O)N[C@@H](CC(=O)O)C(=O)N[C@@H](Cc1ccccc1)C(=O)N[C@@H](CCCCN)C(=O)O)C(C)C)[C@@H](C)CC [Peptide 346-001, SWLRDIWDWICEVLSDFK] (H-SWLRDIWDWICEVLSDFK-OH; N-terminus and C-terminus assumed)
reduction on viral copy numbers ([1]; 50 μM dosing concentration): > 5 orders of magnitude
reduction on viral copy numbers ([1]; 125 μM dosing concentration): > 7 orders of magnitude
antiviral activity against HIV-1 (in vitro HIV-1 inhibition) [2]: effective against HIV-1

CC[C@@H](C)[C@@H](NC(=O)[C@@H](CC(=O)O)NC(=O)[C@@H](CCCNC(=N)N)NC(=O)[C@@H](CC(C)C)NC(=O)[C@@H](Cc1c[nH]c2ccccc12)NC(=O)[C@H](N)CO)C(=O)N[C@H](Cc1c[nH]c2ccccc12)C(=O)N[C@H](CC(=O)O)C(=O)N[C@H](Cc1c[nH]c2ccccc12)C(=O)N[C@@H](C(=O)N[C@H](CS)C(=O)N[C@H](CCC(=O)O)C(=O)N[C@@H](C(=O)N[C@H](CC(C)C)C(=O)N[C@H](CO)C(=O)N[C@H](CC(=O)O)C(=O)N[C@H](Cc1ccccc1)C(=O)N[C@H](CCCCN)C(=O)O)C(C)C)[C@H](C)CC [Peptide 346-002, swlrdiwdwicevlsdfk] (H-[dS][dW][dL][dR][dD][dI][dW][dD][dW][dI][dC][dE][dV][dL][dS][dD][dF][dK]-OH; N-terminus and C-terminus assumed)
EC50 ([3]; 2019-nCoV/USA-WA1/2020 strain, 48 h): 13 µM

CC[C@H](C)[C@H](NC(=O)[C@H](CC(C)C)NC(=O)[C@H](CC(=O)O)NC(=O)[C@@H](NC(=O)[C@H](Cc1c[nH]c2ccccc12)NC(=O)[C@H](CC(=O)O)NC(=O)[C@H](CCCNC(=N)N)NC(=O)[C@H](Cc1c[nH]c2ccccc12)NC(=O)[C@@H](NC(=O)[C@@H](N)CO)[C@@H](C)CC)C(C)C)C(=O)N[C@@H](CS)C(=O)N[C@@H](CCC(=O)O)C(=O)N[C@@H](Cc1ccccc1)C(=O)N[C@@H](CC(C)C)C(=O)N[C@@H](CO)C(=O)N[C@@H](CC(=O)O)C(=O)N[C@@H](Cc1c[nH]c2ccccc12)C(=O)N[C@@H](CCCCN)C(=O)O [Peptide 346-007, SIWRDWVDLICEFLSDWK] (H-SIWRDWVDLICEFLSDWK-OH; N-terminus and C-terminus assumed)
potency relative to the other peptides tested [3]: ca. double the potency of the other peptides tested

CCN(CC)CCCC(C)Nc1ccnc2cc(Cl)ccc12 (stereo not drawn) [chloroquine]
treatment outcome in SARS-CoV-2 / COVID-19 patients (SARS-CoV-2): failed
patient morbidity risk (SARS-CoV-2): increased patient morbidity risk

CCN(CCO)CCCC(C)Nc1ccnc2cc(Cl)ccc12 (stereo not drawn) [hydroxychloroquine]
treatment outcome in SARS-CoV-2 / COVID-19 patients (SARS-CoV-2): failed
patient morbidity risk (SARS-CoV-2): increased patient morbidity risk
